From patent US7999099B2, “Modified 5′-phosphonate azidothymidine—potential anti-viral preparations” (priority 2004, dated 2011)
Like-named read-outs stand apart in the source and are kept apart here.

What was measured:
[1] = tested on: GKV-4046 HIV-1; experiment: Inhibition of HIV-1 replication in MT-4 cell culture (p24 accumulation, cell viability by MTT); format: cell-based, type 1 human immunodeficiency virus; conditions: MT-4 cells
Experimental: Inhibition of HIV replication was studied by cultivating pre-infected lymphoid cells of MT-4 cell line in the presence of the investigational compounds in the concentration of 0.001-100 µg per 1 ml of culture medium during one passage, i.e. 4 days.
Inhibition of HIV replication in a sensitive cell culture is assessed by the reduction of p24 virus-specific protein accumulation (according to immunoenzyme assay) as well as by the increase of cell viability in the presence of the drug as compared to the control on the 4th day of cultivation using bromide 3-(4,5-dimethylthiasol-2-yl)-2,5-diphenuyltetrasolium (MTT).
The effect of the investigational compounds of HIV-1 replication in MT-4 cell culture was studied using a known method.
The therapeutic index, or the index of selectivity (IS), is calculated as the ratio of 50% toxic concentration of a compound to its 50% effective dose (the results are presented in table 1).

[2] = Pharmacokinetics of generated AZT in dog blood after oral administration; format: in vivo
Experimental: A dog weighing 12 kg was orally given 250 mg of the investigational compound (mixed with curd). Blood samples (1 ml) were taken at defined intervals from the femoral vein. The samples were centrifuged (10 minutes at 2000 rpm) and the supernatant was separated. Oxetan (internal standard, 0.25 […]g) and methanol (0.75 ml) were added to aliquots of the supernatant (0.25 ml). The resulting mixture was centrifuged for 3 minutes at 5000 rpm. The supernatant was separated and evaporated in air flow at 40° C., water (1 ml) was added to the residue. Aliqutes (20[…]1) were analyzed by HPLC in Gynkotec chromatograph (Germany) using Ultrasphere ODC Beckman analytical column (USA). Eluent: 6% acetonitrile in 0.1% H3PO4 (pH 2.1) in the presence of 0.15% triethylamine; detection at […]max 265 nm at 30° C.

Compound: 5′-Aminocarbonylphosphonyl-3′-azido-3′-deoxythymidine [Ie]
- IS (index of selectivity, ratio of 50% toxic concentration to 50% effective dose) [1]: >3000

Compound: 5′-Chloromethylphosphonyl-3′-azido-3′-deoxythymidine [Ia]
- IS (index of selectivity, ratio of 50% toxic concentration to 50% effective dose) [1]: >3000

Compound: 5′-Hydroxymethylphosphonyl-3′-azido-3′-deoxythymidine [Ic]
- IS (index of selectivity, ratio of 50% toxic concentration to 50% effective dose) [1]: >1600

Compound: 5′-Iodomethylphosphonyl-3′-azido-3′-deoxythymidine [Ib]
- IS (index of selectivity, ratio of 50% toxic concentration to 50% effective dose) [1]: >100

Compound: 5′-Methoxymethylphosphonyl-3′-azido-3′-deoxythymidine
- IS (index of selectivity, ratio of 50% toxic concentration to 50% effective dose) [1]: >100

Compound: Cc1cn([C@H]2C[C@H](N=[N+]=[N-])[C@@H](CO)O2)c(=O)[nH]c1=O [AZT, 3′-azido-3′-deoxythymidine]
- half-life ([2]; in vivo, of azidothymidine, oral, amount equivalent to 250 mg of AZT): 5.2 h
- AUC ([2]; in vivo, of azidothymidine, oral, amount equivalent to 250 mg of AZT, read-out: AUC): 58800 ng·h/mL
- Cmax ([2]; in vivo, of azidothymidine, oral, amount equivalent to 250 mg of AZT, read-out: Cmax): 9770 ng/mL
- MRT ([2]; in vivo, of azidothymidine, oral, amount equivalent to 250 mg of AZT, read-out: MRT): 7.5 h
- Tmax ([2]; in vivo, of azidothymidine, oral, amount equivalent to 250 mg of AZT, read-out: Tmax): 2.5 h
- CL ([2]; of azidothymidine, oral, amount equivalent to 250 mg of AZT): 4.2 L/h

Compound: Cc1cn([C@H]2C[C@H](N=[N+]=[N-])[C@@H](CO[PH](=O)O)O2)c(=O)[nH]c1=O [Nikavir, 5′-hydrohenphosphonate of 3′-azido-2′,3′-dideoxythymidine]
- IS (index of selectivity, ratio of 50% toxic concentration to 50% effective dose) [1]: 2015
- AUC ([2]; in vivo, po, 250 mg): 16600 ng·h/mL
- CL ([2]; in vivo, po, 250 mg): 15.0 L/h
- Cmax ([2]; in vivo, po, 250 mg): 1890 ng/mL
- MRT ([2]; in vivo, po, 250 mg): 10.4 h
- T1/2 ([2]; in vivo, po, 250 mg): 7.2 h
- Tmax ([2]; in vivo, po, 250 mg): 4.0 h
